# Data as given in patent publication US12077555B2, “STAT degraders and uses thereof” (Kymera Therapeutics, Inc., priority 2019, dated 2024).
# Molecular target: STAT3 (Homo sapiens, UniProt P40763)
# Experiment: STAT3 HiBiT degradation assay in transfected A549 cells
# Assay type: cell-based
# Set-up: expressed in transfected cells; host or cells: A549
# Conditions: A549, 24 h; read-out: STAT3 HiBiT A549 degradation 24 h: Average external-Abs DC50
# How it was run: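 Transfected A549 cells (~2000/well) plated 24 h, then treated 24 h at 37 °C, 5% CO2 with a 3-fold, 10-point compound dilution. HiBiT lytic luminescence read after 10 min at room temperature; remaining STAT3 normalized to negative and positive controls, four-parameter fit. DC50 binned A <0.01, B 0.01–0.1, C 0.1–1.0, D >1.0 µM.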
# STAT3, sequence (P40763 whole entry): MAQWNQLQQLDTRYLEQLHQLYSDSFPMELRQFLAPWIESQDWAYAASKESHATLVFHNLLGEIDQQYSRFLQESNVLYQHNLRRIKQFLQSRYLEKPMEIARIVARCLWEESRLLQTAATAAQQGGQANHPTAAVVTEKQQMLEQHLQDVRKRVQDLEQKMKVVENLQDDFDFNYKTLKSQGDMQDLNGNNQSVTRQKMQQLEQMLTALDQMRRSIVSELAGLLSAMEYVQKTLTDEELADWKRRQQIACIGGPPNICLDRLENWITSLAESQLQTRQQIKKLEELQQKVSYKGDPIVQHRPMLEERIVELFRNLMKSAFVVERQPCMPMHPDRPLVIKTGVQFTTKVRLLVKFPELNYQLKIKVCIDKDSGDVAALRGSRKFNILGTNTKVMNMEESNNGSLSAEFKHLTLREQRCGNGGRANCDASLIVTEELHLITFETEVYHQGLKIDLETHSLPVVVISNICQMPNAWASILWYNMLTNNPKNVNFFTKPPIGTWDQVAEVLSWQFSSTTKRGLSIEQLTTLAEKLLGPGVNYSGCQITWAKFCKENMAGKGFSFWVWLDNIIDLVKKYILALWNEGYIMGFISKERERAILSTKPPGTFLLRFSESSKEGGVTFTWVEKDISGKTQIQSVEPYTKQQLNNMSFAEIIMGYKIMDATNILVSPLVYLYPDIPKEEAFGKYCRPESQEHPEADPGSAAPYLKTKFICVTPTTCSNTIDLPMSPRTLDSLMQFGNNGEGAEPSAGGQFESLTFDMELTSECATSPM
row,SMILES,DC50
1,CC(=O)O[C@@H]1C[C@@H](C(=O)N[C@@H](C)c2ccc(-c3scnc3C)cc2)N(C(=O)[C@@H](NC(=O)CCCCCc2cccc(OC[C@H](CCC(N)=O)NC(=O)[C@@H]3Cc4cccc5c4N3C(=O)[C@@H](NC(=O)c3cc4cc(C(=O)P(=O)(O)O)ccc4[nH]3)CC5)c2F)C(C)(C)C)C1 [Compound I-272],< 10 nM
2,"Cc1ncsc1-c1ccc([C@H](C)NC(=O)[C@@H]2C[C@@H](O)CN2C(=O)[C@@H](NC(=O)CCCCCc2cc(F)cc(OC[C@H](CCC(N)=O)NC(=O)[C@@H]3Cc4cccc5c4N3C(=O)[C@@H](NC(=O)c3cc4cc(C(=O)P(=O)(O)O)ccc4[nH]3)CC5)c2)C(C)(C)C)cc1 [Compound I-216, 2-[[(2S,11S)-2-[[(2S)-4-carbamoyl-1-[3-fluoro-5-(5-[[(2S)-1-[(2S,4R)-4-hydroxy-2-[[(1S)-1-[4-(4-methyl-1,3-thiazol-5-yl)phenyl]ethyl]carbamoyl]pyrrolidin-1-yl]-3,3-dimethyl-1-oxobutan-2-yl]carbamoyl]pentyl)phenoxy]butan-2-yl]carbamoyl]-12-oxo-1-azatricyclo[6.4.1.0^[4,13]]trideca-4(13),5,7-trien-11-yl]carbamoyl]-1H-indole-5-carbonylphosphonic acid]",10 to 100 nM
3,"Cc1ncsc1-c1ccc(CNC(=O)[C@@H]2C[C@@H](O)CN2C(=O)[C@@H](NC(=O)CCCCCc2cccc(OC[C@H](CCC(N)=O)NC(=O)[C@@H]3Cc4cccc5c4N3C(=O)[C@@H](NC(=O)c3cc4cc(C(=O)P(=O)(O)O)ccc4[nH]3)CC5)c2)C(C)(C)C)cc1 [Compound I-164, 2-[[(2S,11S)-2-[[(2S)-4-carbamoyl-1-[3-(5-[[(2S)-1-[(2S,4R)-4-hydroxy-2-([[4-(4-methyl-1,3-thiazol-5-yl)phenyl]methyl]carbamoyl)pyrrolidin-1-yl]-3,3-dimethyl-1-oxobutan-2-yl]carbamoyl]pentyl)phenoxy]butan-2-yl]carbamoyl]-12-oxo-1-azatricyclo[6.4.1.0^[4,13]]trideca-4(13),5,7-trien-11-yl]carbamoyl]-1H-indole-5-carbonylphosphonic acid]",10 to 100 nM
4,"Cc1cc(CCCCCC(=O)N[C@H](C(=O)N2C[C@H](O)C[C@H]2C(=O)N[C@@H](C)c2ccc(-c3scnc3C)cc2)C(C)(C)C)c(F)c(OC[C@H](CCC(N)=O)NC(=O)[C@@H]2Cc3cccc4c3N2C(=O)[C@@H](NC(=O)c2cc3cc(C(=O)P(=O)(O)O)ccc3[nH]2)CC4)c1 [Compound I-266, 2-[[(2S,11S)-2-[[(2S)-4-carbamoyl-1-[2-fluoro-3-(5-[[(2S)-1-[(2S,4R)-4-hydroxy-2-[[(1S)-1-[4-(4-methyl-1,3-thiazol-5-yl)phenyl]ethyl]carbamoyl]pyrrolidin-1-yl]-3,3-dimethyl-1-oxobutan-2-yl]carbamoyl]pentyl)-5-methylphenoxy]butan-2-yl]carbamoyl]-12-oxo-1-azatricyclo[6.4.1.[4,13]]trideca-4(13),5,7-trien-11-yl]carbamoyl]-1H-indole-5-carbonylphosphonic acid]",< 10 nM
5,"Cc1ncsc1-c1ccc([C@H](C)NC(=O)[C@@H]2C[C@@H](O)CN2C(=O)[C@@H](NC(=O)CCCCc2cccc(OC[C@H](CCC(N)=O)NC(=O)[C@@H]3Cc4cccc5c4N3C(=O)[C@@H](NC(=O)c3cc4cc(C(=O)P(=O)(O)O)ccc4[nH]3)CC5)c2)C(C)(C)C)cc1 [Compound I-211, diammonium 2-[[(2S,11S)-2-[[(2S)-4-carbamoyl-1-[3-(4-[[(2S)-1-[(2S,4R)-4-hydroxy-2-[[(1S)-1-[4-(4-methyl-1,3-thiazol-5-yl)phenyl]ethyl]carbamoyl]pyrrolidin-1-yl]-3,3-dimethyl-1-oxobutan-2-yl]carbamoyl]butyl)phenoxy]butan-2-yl]carbamoyl]-12-oxo-1-azatricyclo[6.4.1.0^[4,13]]trideca-4(13),5,7-trien-11-yl]carbamoyl]-1H-indole-5-carbonylphosphonate]",10 to 100 nM
6,"Cn1c(=O)n(C2CCC(=O)NC2=O)c2ccc(CCCCCCOc3ccc4c5c3CC[C@H](NC(=O)c3cc6cc(C(=O)P(=O)(O)O)ccc6[nH]3)C(=O)N5[C@H](C(=O)N[C@@H](CCC(N)=O)C(=O)NC(c3ccccc3)c3ccccc3)C4)cc21 (stereo partly drawn) [Compound I-269, 2-[[(2S,11S)-2-[[(1S)-3-Carbamoyl-1-(diphenylmethylcarbamoyl)propyl]carbamoyl]-7-([6-[1-(2,6-dioxopiperidin-3-yl)-3-methyl-2-oxo-1,3-benzodiazol-5-yl]hexyl]oxy)-12-oxo-1-azatricyclo[6.4.1.0^[4,13]]trideca-4(13),5,7-trien-11-yl]carbamoyl]-1H-indole-5-carbonylphosphonic acid]",> 1000 nM
7,"C/C(=C\C(=O)N[C@H]1CN(C(=O)CCCCCCc2ccc3c(c2)n(C)c(=O)n3C2CCC(=O)NC2=O)CC[C@H]2CC[C@@H](C(=O)N[C@@H](CCC(N)=O)C(=O)NC(c3ccccc3)c3ccccc3)N2C1=O)c1cccc(C(F)(F)P(=O)(O)O)c1 (stereo partly drawn) [Compound I-143, [3-[(1E)-1-[[(8S,10aR)-8-[[(1S)-3-carbamoyl-1-(diphenylmethylcarbamoyl)propyl]carbamoyl]-3-[7-[1-(2,6-dioxopiperidin-3-yl)-3-methyl-2-oxo-1,3-benzodiazol-5-yl]heptanoyl]-6-oxo-octahydropyrrolo[1,2-a][1,5]diazocin-5-yl]carbamoyl]prop-1-en-2-yl]phenyl]difluoromethylphosphonic acid]",> 1000 nM
8,"Cn1c(=O)n(C2CCC(=O)NC2=O)c2ccc(CCCCCCC(=O)N3CC[C@H]4CC[C@@H](C(=O)N[C@@H](CCC(N)=O)C(=O)NCc5ccc(S(C)(=O)=O)cc5)N4C(=O)[C@@H](NC(=O)c4cc5cc(C(=O)P(=O)(O)O)ccc5[nH]4)C3)cc21 (stereo partly drawn) [Compound I-288, 2-[[(5S,8S,10aR)-8-[[(1S)-3-carbamoyl-1-[[(4-methanesulfonylphenyl)methyl]carbamoyl]propyl]carbamoyl]-3-[7-[1-(2,6-dioxopiperidin-3-yl)-3-methyl-2-oxo-1,3-benzodiazol-5-yl]heptanoyl]-6-oxo-octahydropyrrolo[1,2-a][1,5]diazocin-5-yl]carbamoyl]-1H-indole-5-carbonylphosphonic acid]",10 to 100 nM
9,Cc1ncsc1-c1ccc([C@H](C)NC(=O)[C@@H]2C[C@@H](O)CN2C(=O)[C@@H](NC(=O)CCCc2cccc(NC(=O)[C@H](CCC(N)=O)NC(=O)[C@@H]3Cc4cccc5c4N3C(=O)[C@@H](NC(=O)c3cc4cc(C(=O)P(=O)(O)O)ccc4[nH]3)CC5)c2)C(C)(C)C)cc1 [Compound I-248],10 to 100 nM
10,"Cc1ncsc1-c1ccc(CNC(=O)[C@@H]2C[C@@H](O)CN2C(=O)[C@@H](NC(=O)CCCCc2ccc(CN(C)C[C@H](CCC(N)=O)NC(=O)[C@@H]3Cc4cccc5c4N3C(=O)[C@@H](NC(=O)c3cc4cc(C(=O)P(=O)(O)O)ccc4[nH]3)CC5)cc2)C(C)(C)C)cc1 [Compound I-179, 2-[[(2S,11S)-2-[[(2S)-4-carbamoyl-1-([[4-(4-[[(2S)-1-[(2S,4R)-4-hydroxy-2-([[4-(4-methyl-1,3-thiazol-5-yl)phenyl]methyl]carbamoyl)pyrrolidin-1-yl]-3,3-dimethyl-1-oxobutan-2-yl]carbamoyl]butyl)phenyl]methyl](methyl)amino)butan-2-yl]carbamoyl]-12-oxo-1-azatricyclo[6.4.1.0^[4,13]]trideca-4(13),5,7-trien-11-yl]carbamoyl]-1H-indole-5-carbonylphosphonic acid]",100 to 1000 nM
11,"Cc1ncsc1-c1ccc(CNC(=O)[C@@H]2C[C@@H](O)CC2C(=O)[C@@H](NC(=O)CCc2ccc(CCCOC[C@H](CCC(N)=O)NC(=O)[C@@H]3Cc4cccc5c4N3C(=O)[C@@H](NC(=O)c3cc4cc(C(=O)P(=O)(O)O)ccc4[nH]3)CC5)cc2)C(C)(C)C)cc1 (stereo partly drawn) [Compound I-170, diammonium 2-[[(2S,11S)-2-[[(2S)-4-carbamoyl-1-[3-[4-(2-[[(2S)-1-[(2S,4R)-4-hydroxy-2-([[4-(4-methyl-1,3-thiazo1-5-yl)phenyl]methyl]carbamoyl)pyrrolidin-1-yl]-3,3-dimethyl-1-oxobutan-2-yl]carbamoyl]ethyl)phenyl]propoxy]butan-2-yl]carbamoyl]-12-oxo-1-azatricyclo[6.4.1.0^[4,13]]trideca-4(13),5,7-trien-11-yl]carbamoyl]-1H-indole-5-carbonylphosphonate]",> 1000 nM
12,"Cc1ncsc1-c1ccc([C@H](C)NC(=O)[C@@H]2C[C@@H](O)CN2C(=O)[C@@H](NC(=O)CCCCCc2cccc(O[C@H](C)[C@H](CCC(N)=O)NC(=O)[C@@H]3Cc4cccc5c4N3C(=O)[C@@H](NC(=O)c3cc4cc(C(=O)P(=O)(O)O)ccc4[nH]3)CC5)c2)C(C)(C)C)cc1 [Compound I-219, 2-[[(2S,11S)-2-[[(3S,4R)-1-carbamoyl-4-[3-(5-[[(2S)-1-[(2S,4R)-4-hydroxy-2-[[(1S)-1-[4-(4-methyl-1,3-thiazol-5-yl)phenyl]ethyl]carbamoyl]pyrrolidin-1-yl]-3,3-dimethyl-1-oxobutan-2-yl]carbamoyl]pentyl)phenoxy]pentan-3-yl]carbamoyl]-12-oxo-1-azatricyclo[6.4.1.0^[4,13]]trideca-4(13),5,7-trien-11-yl]carbamoyl]-1H-indole-5-carbonylphosphonic acid]",100 to 1000 nM

# Same assay, conditions: read-out: STAT3 HiBiT A549 degradation 24 h: Average external-Abs DC50; A549, 24 h
row,SMILES,DC50
1,"Cn1c(=O)n(C(CCC(N)=O)C(=O)O)c2ccc(C[C@H]3CC[C@@H](CC(=O)N4CC[C@H]5CC[C@@H](C(=O)N[C@@H](CCC(N)=O)C(=O)NC(c6ccccc6)c6ccccc6)N5C(=O)[C@@H](NC(=O)c5cc6cc(C(=O)P(=O)(O)O)ccc6[nH]5)C4)CC3)cc21 (stereo partly drawn) [Compound I-255, 4-carbamoyl-2-(3-methyl-2-oxo-5-[[(1s,4s)-4-[2-[(5S,8S,10aR)-8-[[(1S)-3-carbamoyl-1-(diphenylmethylcarbamoyl)propyl]carbamoyl]-6-oxo-5-[5-(phosphonocarbonyl)-1H-indole-2-amido]-octahydropyrrolo[1,2-a][1,5]diazocin-3-yl]-2-oxoethyl]cyclohexyl]methyl]-1,3-benzodiazol-1-yl)butanoic acid]",> 1000 nM
